Results from patent US8084644B2, “Iminopropene compound and use thereof” (Sumitomo Chemical Company, Limited, priority 2005, dated 2011).

Test system: Haemaphysalis longicornis
Experiment: Test Example 11: filter paper bag contact test on ticks
Type: in vivo
Conditions: 48 h, 0.5 mg test compound on 5 cm×10 cm filter paper, after 2 days
Description: 0.5 mg of the test compound was dissolved to […]. Onto one side of filter paper having 5 cm×10 cm, the solution was applied uniformly and then air-dried. Thereafter, the filter paper was folded in half and fixed by paper clips at the side to form bag like shape. Ten Haemaphysalis longicornis was put into the bag, and then the bag was closed with a paper clip. After 2 days, the number of dead insects was examined.

| SMILES | mortality at 0.5 mg/filter paper |
| --- | --- |
| C=CCSC(C=CSc1ccccc1)=Nc1ccccc1 [(186), 2-Propenyl N-phenyl-3-(phenylthio)thioacrylimidate] | 100% |
| Ic1ccc(N=C(C=COc2ccccc2)Oc2ccccc2)cc1 [(80), Phenyl N-(4-iodophenyl)-3-(phenoxy)acrylimidate] | 100% |
| Cc1ccc(N=C(C=CSc2ccc(Cl)cc2)SCC(C)C)cc1 [(435), Isobutyl 3-(4-chlorophenylthio)-N-(4-methylphenyl)thioacrylimidate] | 100% |
| Cc1ccc(N=C(C=CSc2ccccc2)SC2CCCCC2)cc1 [(470), Cyclohexyl N-(4-methylphenyl)-3-(phenylthio)thioacrylimidate] | 100% |
| Clc1ccccc1SC(C=CSc1ccccc1)=Nc1ccccc1 [(4), 2-Chlorophenyl N-phenyl-3-(phenylthio)thioacrylimidate] | 100% |
| Clc1cccc(N=C(C=COc2ccccc2)Oc2ccccc2)c1 [(45), Phenyl N-(3-chlorophenyl)-3-(phenoxy)acrylimidate] | 100% |
| Cc1ccc(N=C(C=CSc2ccc(C)cc2)SC2CCCCC2)cc1 [(473), Cyclohexyl N-(4-methylphenyl)-3-(4-methylphenylthio)thioacrylimidate] | 100% |
| Brc1ccc(SC=CC(=Nc2ccccc2)Oc2ccccc2)cc1 [(102), Phenyl 3-(4-bromophenylthio)-N-phenylacrylimidate] | 100% |
| CCCCSC(C=CSc1ccc(F)cc1)=Nc1ccc(C)cc1 [(474), Butyl 3-(4-fluorophenylthio)-N-(4-methylphenyl)thioacrylimidate] | 100% |
| Fc1ccc(N=C(C=CSc2ccccc2)Sc2ccccc2)cc1 [(264), Phenyl N-(4-fluorophenyl)-3-(phenylthio)thioacrylimidate] | 100% |
| Cc1ccc(N=C(C=CSc2ccccc2)Sc2cccs2)cc1 [(480), 2-Thienyl N-(4-methylphenyl)-3-(phenylthio)thioacrylimidate] | 100% |
| Cc1ccc(N=C(C=CSc2cccc(Cl)c2)SCC(C)C)cc1 [(434), Isobutyl 3-(3-chlorophenylthio)-N-(4-methylphenyl)thioacrylimidate] | 100% |
| CCCSC(C=CSc1ccccc1)=Nc1ccc(C)cc1 [(280), Propyl N-(4-methylphenyl)-3-(phenylthio)thioacrylimidate] | 100% |
| Cc1ccc(OC(C=CSc2ccccc2)=Nc2ccc(C(C)C)cc2)cc1 [(88), 4-Methylphenyl N-[4-(1-methylethyl)phenyl]-3-(phenylthio)acrylimidate] | 100% |
| CCCCSC(C=CSc1ccc(Cl)cc1)=Nc1ccc(C)cc1 [(475), Butyl 3-(4-chlorophenylthio)-N-(4-methylphenyl)thioacrylimidate] | 100% |
| Cc1ccc(N=C(C=CSc2ccc(Cl)cc2)SC2CCCCC2)cc1 [(472), Cyclohexyl 3-(4-chlorophenylthio)-N-(4-methylphenyl)thioacrylimidate] | 100% |
| Fc1ccc(N=C(C=COc2ccccc2)Oc2ccccc2)cc1 [(75), Phenyl N-(4-fluorophenyl)-3-(phenoxy)acrylimidate] | 100% |
| COc1ccc(SC=CC(=Nc2ccc(C)cc2)SCC(C)C)cc1 [(447), Isobutyl 3-(4-methoxyphenylthio)-N-(4-methylphenyl)thioacrylimidate] | 100% |
| COc1ccc(SC=CC(=Nc2ccccc2)Oc2ccccc2)cc1 [(146), Phenyl 3-(4-methoxyphenylthio)-N-phenylacrylimidate] | 100% |

| SMILES | mortality at 0.5 mg/filter paper |
| --- | --- |
| C(=CC(=Nc1ccccc1)Sc1ccccc1)Sc1ccccc1 [(1), Phenyl N-phenyl-3-(phenylthio)thioacrylimidate] | 100% |
| Fc1ccc(N=C(C=CSc2ccccc2)Oc2ccccc2)cc1 [(50), Phenyl N-(4-fluorophenyl)-3-(phenylthio)acrylimidate] | 100% |
| C(=CC(=Nc1ccccc1)SC1CCCCC1)Sc1ccccc1 [(187), Cyclohexyl N-phenyl-3-(phenylthio)thioacrylimidate] | 100% |
| Clc1ccc(N=C(C=COc2ccccc2)Oc2ccccc2)cc1Cl [(59), Phenyl N-(3,4-dichlorophenyl)-3-(phenoxy)acrylimidate] | 100% |
| Cc1cc(C)cc(SC=CC(=Nc2ccccc2)Oc2ccccc2)c1 [(121), Phenyl 3-(3,5-dimethylphenylthio)-N-phenylacrylimidate] | 100% |
| Fc1ccc(SC=CC(=Nc2ccccc2)SC2CCCCC2)cc1 [(469), Cyclohexyl 3-(4-fluorophenylthio)-N-(phenyl)thioacrylimidate] | 100% |
| CCC(C)OC(C=CSc1ccc(F)cc1)=Nc1ccc(C)cc1 (centres unmarked) [(513), 1-Methylpropyl 3-(4-fluorophenylthio)-N-(4-methylphenyl)acrylimidate] | 100% |
| Fc1cccc(SC=CC(=Nc2ccccc2)Oc2ccccc2)c1 [(113), Phenyl 3-(3-fluorophenylthio)-N-phenylacrylimidate] | 100% |
| Fc1ccc(N=C(C=CSc2ccccc2)Sc2ccc(F)cc2)cc1 [(278), 4-Fluorophenyl N-(4-fluorophenyl)-3-(phenylthio)thioacrylimidate] | 100% |
| Fc1cccc(N=C(C=CSc2ccccc2)Oc2ccccc2)c1 [(51), Phenyl N-(3-fluorophenyl)-3-(phenylthio)acrylimidate] | 100% |
| Cc1ccc(N=C(C=CSc2ccccc2F)SCC(C)C)cc1 [(428), Isobutyl 3-(2-fluorophenylthio)-N-(4-methylphenyl)thioacrylimidate] | 100% |
| Cc1ccc(N=C(C=CSc2ccccc2)Sc2ccccc2)cc1 [(28), Phenyl N-(4-methylphenyl)-3-phenylthiothioacrylimidate] | 100% |
| Cc1ccc(N=C(C=CSc2ccccc2)SC2CCCC2)cc1 [(333), Cyclopentyl N-(4-methylphenyl)-3-(phenylthio)thioacrylimidate] | 100% |
| Brc1cccc(SC=CC(=Nc2ccccc2)Oc2ccccc2)c1 [(101), Phenyl 3-(3-bromophenylthio)-N-phenylacrylimidate] | 100% |
| Cc1ccc(N=C(C=CSc2ccccc2Cl)SCC(C)C)cc1 [(433), Isobutyl 3-(2-chlorophenylthio)-N-(4-methylphenyl)thioacrylimidate] | 100% |
| Cc1ccc(N=C(C=CSc2ccccc2)SCC(C)C)cc1 [(321), 2-Methylpropyl N-(4-methylphenyl)-3-(phenylthio)thioacrylimidate] | 100% |
| Fc1ccccc1N=C(C=CSc1ccccc1)Oc1ccccc1 [(48), Phenyl N-(2-fluorophenyl)-3-(phenylthio)acrylimidate] | 100% |
| Cc1ccc(N=C(C=CSc2ccc(C)cc2)SCC(C)C)cc1 [(443), Isobutyl N-(4-methylphenyl)-3-(4-methylphenylthio)thioacrylimidate] | 100% |
| Cc1ccc(N=C(C=CSc2ccc(F)cc2)SCC(C)C)cc1 [(431), Isobutyl 3-(4-fluorophenylthio)-N-(4-methylphenyl)thioacrylimidate] | 100% |
